This experiment deals with Disintegrin and metalloproteinase domain-containing protein 17 (Homo sapiens) (UniProt P78536). The experiment in a line: Inhibition of TACE in human THP1 cell lysate at 0.1 uM/L by spectrofluorimetric ELISA relative to control. The class given is cell-free. The following applies: THP-1. (ELISA stands for enzyme-linked immunosorbent assay.)

Broadly, the inhibition is how much of the control response was suppressed.

Disintegrin and metalloproteinase domain-containing protein 17 (Homo sapiens), sequence (P78536 whole entry, the tested form may be a part): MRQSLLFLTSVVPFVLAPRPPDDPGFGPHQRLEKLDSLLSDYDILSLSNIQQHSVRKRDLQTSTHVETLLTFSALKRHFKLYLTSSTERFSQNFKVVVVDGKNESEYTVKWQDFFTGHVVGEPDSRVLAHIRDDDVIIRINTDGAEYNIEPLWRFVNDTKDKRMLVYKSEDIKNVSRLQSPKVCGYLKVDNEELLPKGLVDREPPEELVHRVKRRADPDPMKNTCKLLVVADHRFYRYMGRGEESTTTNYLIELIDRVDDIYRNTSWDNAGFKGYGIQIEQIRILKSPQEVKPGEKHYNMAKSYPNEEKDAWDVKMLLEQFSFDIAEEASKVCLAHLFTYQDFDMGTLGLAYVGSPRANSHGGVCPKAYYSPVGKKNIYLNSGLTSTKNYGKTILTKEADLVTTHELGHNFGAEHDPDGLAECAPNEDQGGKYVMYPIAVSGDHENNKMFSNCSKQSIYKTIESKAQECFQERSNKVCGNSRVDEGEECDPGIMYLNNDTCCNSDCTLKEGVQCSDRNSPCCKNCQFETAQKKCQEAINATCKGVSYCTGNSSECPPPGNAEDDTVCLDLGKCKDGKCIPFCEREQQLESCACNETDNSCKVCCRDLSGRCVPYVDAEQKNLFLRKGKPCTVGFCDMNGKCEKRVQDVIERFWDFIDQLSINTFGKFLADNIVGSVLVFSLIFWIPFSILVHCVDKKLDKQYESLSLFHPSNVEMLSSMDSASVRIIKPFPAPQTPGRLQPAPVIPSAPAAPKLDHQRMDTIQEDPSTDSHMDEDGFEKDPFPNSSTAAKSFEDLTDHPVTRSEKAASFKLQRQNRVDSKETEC

In the case of `CC(C(=O)O)N1CCN(c2ccc(OCc3cc(-c4ccccc4)nc4ccccc34)cc2)C1=O` (centres undefined), the inhibition is 30%.
The result for `CC(C(=O)NO)N1CCCN(c2ccc(OCc3ccccc3)cc2)C1=O` (centres undefined) reads 28%; that for `CC(C(=O)NO)N1CCCN(c2ccc(OCc3ccccn3)cc2)C1=O` (centres undefined), 37%; that for `COc1ccc(COc2ccc(N3CCN(C(C)C(=O)NO)C3=O)cc2)cc1` (centres undefined), 38%.
The result for `COc1ccc(CSc2ccc(N3CCN(C(C)C(=O)NO)C3=O)cc2)cc1` (centres undefined) reads 42%; that for `CC(C(=O)NO)N1CCN(c2cccc(OCc3ccc([N+](=O)[O-])cc3)c2)C1=O` (centres undefined), 40%; that for `CC(C)Cc1cc(COc2ccc(N3CCN(C(C)C(=O)NO)C3=O)cc2)c2ccccc2n1` (centres undefined), 60%.
`CC(C(=O)O)N1CCN(c2ccc(OCc3ccc(-c4ccccc4)cc3)cc2)C1=O` (centres undefined): the inhibition worked out at 30%.
The molecule `CC(C(=O)O)N1CCCN(c2ccc(OCc3ccc(-c4ccccc4)cc3)cc2)C1=O` (centres undefined) returned an inhibition of 28%.
Next, `CC(C(=O)NO)N1CCCN(c2ccc(OCc3cccc4ccccc34)cc2)C1=O` (centres undefined): 40%; `CC(C)Cc1cc(COc2ccc(N3CCCN(C(C)C(=O)O)C3=O)cc2)c2ccccc2n1` (centres undefined): 20%.
In the case of `CC(C(=O)NO)N1CCN(c2cccc(OCc3ccccc3)c2)C1=O` (centres undefined), the inhibition was 39%.
The result for `CC(C(=O)O)N1CCCN(c2ccc(OCc3ccccn3)cc2)C1=O` (centres undefined) reads 35%.
For `CC(C(=O)O)N1CCN(c2ccc(OCc3ccccn3)cc2)C1=O` (centres undefined), the inhibition stood at 28%.
In turn, `CCc1cc(COc2ccc(N3CCN(C(C)C(=O)O)C3=O)cc2)c2ccccc2n1` (centres undefined) yielded an inhibition of 49%.
The result for `CC(C)C[C@H](CC(=O)NO)C(=O)N[C@@H](C)C(=O)N(c1cccc2ccccc12)[C@@H](C)C(=O)NCCN` reads 28%; that for `CCc1cc(COc2ccc(N3CCCN(C(C)C(=O)NO)C3=O)cc2)c2ccccc2n1` (centres undefined), 34%.
Regarding `COc1ccc(CSc2ccc(N3CCN(C(C)C(=O)O)C3=O)cc2)cc1` (centres undefined), the inhibition was 40%.
Regarding `CC(C(=O)O)N1CCCN(c2ccc(OCc3cc(-c4ccccc4)nc4ccccc34)cc2)C1=O` (centres undefined), the inhibition is 31%.
`CC(C)Cc1cc(COc2ccc(N3CCN(C(C)C(=O)O)C3=O)cc2)c2ccccc2n1` (centres undefined) returned an inhibition of 47%.
Next, `CC(C(=O)NO)N1CCN(c2ccc(OCc3cccc4ccccc34)cc2)C1=O` (centres undefined): 36%; `CC(C(=O)NO)N1CCN(c2ccc(OCc3ccccn3)cc2)C1=O` (centres undefined): 50%; `COc1ccc(COc2ccc(N3CCCN(C(C)C(=O)NO)C3=O)cc2)cc1` (centres undefined): 18%.
Regarding `CCc1cc(COc2ccc(N3CCN(C(C)C(=O)NO)C3=O)cc2)c2ccccc2n1` (centres undefined), the inhibition was 62%.

These data come from ChEMBL document CHEMBL1136879, “Studies on novel 2-imidazolidinones and tetrahydropyrimidin-2(1H)-ones as potential TACE inhibitors: design, synthesis, molecular modeling, and preliminary biological evaluation” (Bioorg Med Chem, 2009).
